IC50, MIC and Activity data for seven molecules are collected here from ChEMBL document CHEMBL5143519, “Exploring disordered loops in DprE1 provides a functional site to combat drug-resistance in Mycobacterium strains” (Eur J Med Chem, 2022).

Converted amounts (≈) assume the structure as drawn.

As usually defined, the IC50 is the concentration that inhibits the measured activity by half. The MIC is the lowest concentration found to suppress growth.

Assay [1] in a line: Inhibition of Mycobacterium tuberculosis DprE1 Y314A mutant expressed in Escherichia coli BL21 DE3 assessed as formation of resorufin using FPR as substrate incubated for 10 mins by Amplex Red dye microplate assay.
Assay [2] in a line: Inhibition of Mycobacterium tuberculosis DprE1 C387A mutant expressed in Escherichia coli BL21 DE3 assessed as formation of resorufin using FPR as substrate incubated for 10 mins by Amplex Red dye microplate assay.
The nature of assay [3]: Inhibition of Mycobacterium tuberculosis DprE1 C387S mutant expressed in Escherichia coli BL21 DE3 assessed as formation of resorufin using FPR as substrate incubated for 10 mins by Amplex Red dye microplate assay.
A short description of assay [4]: Inhibition of Mycobacterium tuberculosis DprE1 K418A mutant expressed in Escherichia coli BL21 DE3 assessed as formation of resorufin using FPR as substrate incubated for 10 mins by Amplex Red dye microplate assay.
For assay [5], the system named is Mycobacterium tuberculosis. Description: Antimycobacterial activity against rifampin resistant Mycobacterium tuberculosis H37Rv assessed as inhibition of bacterial growth incubated for 7 days by microplate alamar blue assay. Format: functional. To be noted: 168 h, time 7 day. (In general: Resazurin is reduced to fluorescent resorufin, in cell work by metabolically active cells.)

Assay [6] deals with Mycobacterium tuberculosis. Description: Antimycobacterial activity against Mycobacterium tuberculosis DprE1 C387S assessed as inhibition of bacterial growth incubated for 7 days by microplate alamar blue assay. Format: functional. To be noted: time 7 day.
Assay [7] concerns Mycobacterium tuberculosis. Description: Antimycobacterial activity against multidrug-resistant Mycobacterium tuberculosis clinical isolate HD1 assessed as inhibition of bacterial growth incubated for 7 days by microplate alamar blue assay. The format is functional. To be noted: Clinical isolate HD1, 168 h, time 7 day.
The subject of assay [8] is Mycobacterium tuberculosis. Description: Antimycobacterial activity against multidrug-resistant Mycobacterium tuberculosis clinical isolate HD2 assessed as inhibition of bacterial growth incubated for 7 days by microplate alamar blue assay. To be noted: Clinical isolate HD2, 168 h, time 7 day. Format: functional.
For assay [9], the system named is Mycobacterium tuberculosis. Description: Antimycobacterial activity against multidrug-resistant Mycobacterium tuberculosis clinical isolate HD3 assessed as inhibition of bacterial growth incubated for 7 days by microplate alamar blue assay. The settings on record: Clinical isolate HD3, 168 h, time 7 day. The format is functional.
The test system of assay [10] is Mycobacterium tuberculosis. Description: Antimycobacterial activity against multidrug-resistant Mycobacterium tuberculosis clinical isolate HD4 assessed as inhibition of bacterial growth incubated for 7 days by microplate alamar blue assay. The format is functional. The settings on record: Clinical isolate HD4, 168 h, time 7 day.
Assay [11] concerns Mycobacterium tuberculosis. Description: Antimycobacterial activity against multidrug-resistant Mycobacterium tuberculosis clinical isolate HD5 assessed as inhibition of bacterial growth incubated for 7 days by microplate alamar blue assay. Format: functional. The settings on record: Clinical isolate HD5, 168 h, time 7 day.
Assay [12] relates to Mycobacterium tuberculosis. Description: Antimycobacterial activity against rifampin resistant Mycobacterium tuberculosis H37Rv assessed as reduction in bacterial colony forming units at 20 times MIC concentration measured after 21 days by time kill assay. Format: functional. The settings on record: time 21 day.

As for `CCOC(=O)NC(=O)c1ccsc1NC(=O)c1nc2ccccc2s1`, the IC50 in assay [1] is 110 nM; in [2], 44 µM; in [3], 5.79 µM; in assay [4], 65 µM. Also, the MIC came out at 3.32 µM (≈ 1.25 µg/mL) in assay [5]; 6.65 µM (≈ 2.5 µg/mL) in [6]; 4.15 µM (≈ 1.56 µg/mL) in [7]; 8.33 µM (≈ 3.13 µg/mL) in assay [8]; 2.07 µM (≈ 0.777 µg/mL) in assay [9]; 8.33 µM (≈ 3.13 µg/mL) in assay [10]. For the same molecule, the MIC in assay [11] was 8.33 µM (≈ 3.13 µg/mL). For the same molecule, the Activity in assay [12] was found to be 3.5 log10CFU/ml.
For `O=C(NC(=O)c1ccsc1NC(=O)c1nc2ccccc2s1)OCC1CC1`, the IC50 in assay [1] turned out to be 29 nM; in assay [2], 0.069 µM; in assay [3], 0.059 µM; in [4] it was 8.93 µM. The MIC was determined as 1.57 µM (≈ 0.63 µg/mL) in assay [5]; 1.57 µM (≈ 0.63 µg/mL) in assay [6]; 1.94 µM (≈ 0.779 µg/mL) in assay [7]; 3.88 µM (≈ 1.56 µg/mL) in [8]; 0.97 µM (≈ 0.389 µg/mL) in [9]; 1.94 µM (≈ 0.779 µg/mL) in assay [10]. Moreover, in assay [11], the MIC is 1.94 µM (≈ 0.779 µg/mL). Further, the Activity in assay [12] was determined as 3.5 log10CFU/ml.
In the case of `O=C(NC(=O)c1ccsc1NC(=O)c1nc2ccccc2s1)OCC1CCC1`, the MIC in [5] was found to be 6.01 µM (≈ 2.5 µg/mL); in [7] it was 1.88 µM (≈ 0.781 µg/mL); in assay [8], 3.76 µM (≈ 1.56 µg/mL); in [9], 1.88 µM (≈ 0.781 µg/mL); in [10] it was 3.76 µM (≈ 1.56 µg/mL); in [11], 3.76 µM (≈ 1.56 µg/mL).
As for `CC(=O)c1ccc(C(=O)Nc2sccc2C(=O)NC(=O)OCC2CC2)cc1`, the IC50 in [2] came out at 3.33 µM; in [3], 3.98 µM.
For the molecule `COc1nc2ccc(Br)cc2cc1[C@@H](c1ccccc1)[C@@](O)(CCN(C)C)c1cccc2ccccc12` [BEDAQUILINE], the MIC in assay [7] turned out to be 0.07 µM (≈ 0.0389 µg/mL); in assay [8], 0.29 µM (≈ 0.161 µg/mL); in assay [9], 0.14 µM (≈ 0.0778 µg/mL); in [10], 0.58 µM (≈ 0.322 µg/mL); in [11] it was 0.07 µM (≈ 0.0389 µg/mL).
Regarding `NNC(=O)c1ccncc1` [ISONIAZID], the MIC stood at 18.2 µM (≈ 2.5 µg/mL) in [7]; 36.5 µM (≈ 5 µg/mL) in assay [8]; 9.11 µM (≈ 1.25 µg/mL) in assay [9]; 18.2 µM (≈ 2.5 µg/mL) in assay [10]; 36.5 µM (≈ 5 µg/mL) in assay [11].
Consider `CO[C@H]1/C=C/O[C@@]2(C)Oc3c(C)c(O)c4c(O)c(c(/C=N/N5CCN(C)CC5)c(O)c4c3C2=O)NC(=O)/C(C)=C\C=C\[C@H](C)[C@H](O)[C@@H](C)[C@@H](O)[C@@H](C)[C@H](OC(C)=O)[C@@H]1C` [RIFAMPIN], for which the MIC in assay [5] is 1.13 µM (≈ 0.93 µg/mL); in assay [6], 0.35 µM (≈ 0.288 µg/mL); in assay [7], 1.9 µM (≈ 1.56 µg/mL); in assay [8], 3.82 µM (≈ 3.14 µg/mL); in assay [9] it was 0.95 µM (≈ 0.782 µg/mL); in assay [10] it was 1.9 µM (≈ 1.56 µg/mL). In [11], the MIC was 3.82 µM (≈ 3.14 µg/mL).
